Measured values reported in PMC2613953, “Characterisation of ATP analogues to cross-link and label P2X receptors” (Neuropharmacology, 2009).
Each block holds one molecule with its values, some of them ahead of it.

Columns and labels:
Assay type in all cases: cell-based
P2X2 receptor [1] = target: T1, P2X2 receptor (Rattus norvegicus, UniProt P49653); assay: UV photo-cross-linking, then whole cell patch clamp ([…] reduction of ATP current)
T1 construct: gene P2rx2; rat P2X2 transiently expressed in HEK293 cells
T1 sequence (P49653 1-472): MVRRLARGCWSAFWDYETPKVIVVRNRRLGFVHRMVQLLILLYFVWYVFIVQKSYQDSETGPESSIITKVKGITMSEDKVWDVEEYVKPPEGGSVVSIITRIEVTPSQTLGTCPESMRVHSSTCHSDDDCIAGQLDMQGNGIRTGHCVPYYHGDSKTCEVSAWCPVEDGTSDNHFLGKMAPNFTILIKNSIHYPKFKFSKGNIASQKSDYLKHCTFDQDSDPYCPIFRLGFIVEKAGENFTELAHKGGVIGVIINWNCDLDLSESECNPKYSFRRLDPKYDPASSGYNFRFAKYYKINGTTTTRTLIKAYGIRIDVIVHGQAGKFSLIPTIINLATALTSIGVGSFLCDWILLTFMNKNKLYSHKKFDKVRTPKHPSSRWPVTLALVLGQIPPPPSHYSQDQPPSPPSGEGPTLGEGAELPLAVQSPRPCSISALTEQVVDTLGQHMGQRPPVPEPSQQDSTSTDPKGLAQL

P2X4 receptor = target: T2, P2X4 receptor (Homo sapiens, UniProt Q99571); assay: as above
T2 construct: gene P2RX4; human P2X4 receptor stably expressed in HEK293 cells
T2 sequence (Q99571 1-388): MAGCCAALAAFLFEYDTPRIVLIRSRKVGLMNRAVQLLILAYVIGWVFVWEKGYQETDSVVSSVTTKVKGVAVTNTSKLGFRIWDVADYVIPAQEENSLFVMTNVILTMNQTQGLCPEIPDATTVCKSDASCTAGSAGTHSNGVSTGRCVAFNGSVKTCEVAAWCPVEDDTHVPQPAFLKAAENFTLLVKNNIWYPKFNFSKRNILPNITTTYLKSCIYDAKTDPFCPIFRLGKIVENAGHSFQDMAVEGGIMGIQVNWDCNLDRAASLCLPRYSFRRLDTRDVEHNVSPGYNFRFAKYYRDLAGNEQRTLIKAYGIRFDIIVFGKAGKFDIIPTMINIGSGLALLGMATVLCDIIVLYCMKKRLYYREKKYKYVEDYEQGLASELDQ

P2X1 receptor [2] = target: T3, P2X1 receptor (Homo sapiens, UniProt P51575); assay: UV photo-cross-linking of radiolabelled analogue, immunoprecipitation and autoradiography with ATP competition; patch clamp agonism
T3 construct: gene P2RX1; human P2X1 receptor stably expressed in HEK293 cells
T3 sequence (P51575 1-399): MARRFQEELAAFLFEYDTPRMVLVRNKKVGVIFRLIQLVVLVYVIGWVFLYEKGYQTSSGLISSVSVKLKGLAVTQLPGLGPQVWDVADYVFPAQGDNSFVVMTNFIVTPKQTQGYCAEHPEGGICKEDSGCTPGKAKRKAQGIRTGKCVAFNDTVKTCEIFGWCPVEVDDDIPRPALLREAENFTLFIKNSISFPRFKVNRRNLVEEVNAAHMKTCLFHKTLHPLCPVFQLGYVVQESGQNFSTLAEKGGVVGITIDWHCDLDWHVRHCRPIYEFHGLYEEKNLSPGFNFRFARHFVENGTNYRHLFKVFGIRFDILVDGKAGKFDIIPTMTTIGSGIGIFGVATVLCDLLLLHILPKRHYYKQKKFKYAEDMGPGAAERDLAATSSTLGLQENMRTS
Excerpt: UV photo-cross-linking of radiolabelled analogue, immunoprecipitation and autoradiography with ATP competition; patch clamp agonism on P2X1 receptor | It confirms the identification of 2-azido ATP as a cross-linking compound which directly binds to the P2X1 receptor.

P2X3 receptor [3] = target: T4, P2X3 receptor (Rattus norvegicus, UniProt P49654); assay: UV photo-cross-linking, then whole cell patch clamp ([…] reduction of ATP current)
T4 construct: gene P2rx3; rat P2X3 transiently expressed in HEK293 cells
T4 sequence (P49654 1-397): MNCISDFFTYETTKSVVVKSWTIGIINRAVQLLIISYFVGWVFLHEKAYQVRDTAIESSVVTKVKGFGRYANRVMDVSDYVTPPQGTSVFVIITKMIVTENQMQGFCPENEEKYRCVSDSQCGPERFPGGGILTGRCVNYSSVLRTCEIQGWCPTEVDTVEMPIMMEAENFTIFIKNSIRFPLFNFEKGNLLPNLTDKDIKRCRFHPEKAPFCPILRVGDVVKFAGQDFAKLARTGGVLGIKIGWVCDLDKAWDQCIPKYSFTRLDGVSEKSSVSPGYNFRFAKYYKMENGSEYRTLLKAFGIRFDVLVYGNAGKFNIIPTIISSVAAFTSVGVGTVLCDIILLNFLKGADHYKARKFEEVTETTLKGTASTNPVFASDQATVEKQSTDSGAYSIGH

P2X1 receptor [4] = target: T3, P2X1 receptor; assay: competition with radiolabelled photo-reactive ATP analogues; whole cell patch clamp agonism
P2X3 receptor [5] = target: T4, P2X3 receptor; assay: whole cell patch clamp, agonist current at approximate EC50 concentration
P2X2 receptor [6] = target: T1, P2X2 receptor; assay: as above
P2X1 receptor [7] = target: T3, P2X1 receptor; assay: whole cell patch clamp; partial agonist; UV cross-linking with ATP/suramin protection

% reduction (P2X2 receptor [1]): 80 % reduction
% reduction (P2X4 receptor): 45 % reduction
EC50 (P2X1 receptor [2]): ~3 µM
% reduction (P2X3 receptor [3]): 83 % reduction
Compound: [N-]=[N+]=Nc1nc(N)c2ncn([C@@H]3O[C@H](COP(=O)(O)OP(=O)(O)OP(=O)(O)O)[C@@H](O)[C@H]3O)c2n1 [A, 2-azido ATP]

Compound: Nc1ncnc2c1ncn2[C@@H]1O[C@H](COP(=O)(O)OP(=O)(O)OP(=O)(O)O)[C@@H](O)[C@H]1O [ATP]
EC50 (P2X1 receptor [4]): ~1 µM
EC50 (P2X3 receptor [5]): ~ 1 μM
EC50 (P2X2 receptor [6]): ~ 10 μM

Compound: Nc1ncnc2c1ncn2[C@@H]1O[C@H](COP(=O)(O)OP(=O)(O)OP(=O)(O)O)[C@@H](OC(=O)c2ccc(C(=O)c3ccccc3)cc2)[C@H]1O [C, 2′,3′-O-(4-benzoylbenzoyl)-ATP]
whole cell patch clamp; partial agonist; UV cross-linking with ATP/suramin prote (P2X1 receptor [7]): These results suggest that the BzATP is acting to cross-link to the P2X1 receptor at the ATP binding site.
